Assay [1] concerns the target receptor tyrosine kinase c-Met (Homo sapiens, UniProt P08581). Kind of assay: In vitro c-Met kinase inhibitory activity. It is filed as biochemical. Conditions: two values per compound; for inhibition at 0.01 µM / inhibition at 0.1 µM / inhibition at 0.001 µM: read-out: c-Met Inhibitory rate (%). An excerpt: Experimental Example 3: Study of In Vitro c-Met Kinase Inhibitory Activity
Since the screening results of 369 kinase profiles of compound DC621044 has shown that the compound has a certain inhibitory activity on c-Met. We further screened some compounds for their inhibitory activity on c-Met kinase.

For assay [2], the system named is BaF3/TEL-AXL cells. Kind of assay: Proliferation of BaF3/TEL-AXL cells. It is filed as cell-based. Conditions: two values per compound; for inhibition at 0.01 µM / inhibition at 0.1 µM / inhibition at 0.001 µM: BaF3/TEL-AXL, read-out: BaF3/TEL-AXL proliferation Inhibitory rate (%). An excerpt:
Experimental Example 4: Effect of the Compound on the Proliferation Effect of BaF3/TEL-AXL Cells
Based on the above-mentioned enzyme activity research results, we further explored the effect of the compound on cell proliferation mediated by receptor tyrosine kinase AXL.

Several values for one entry are separate records, joined by “and”; a condition that tells them apart may be missing. Equal entries are not always repeated.

We go through 13 molecules from patent US12497394B2, “Fused-cyclic pyrazolone formamide compound and preparation method therefor, pharmaceutical composition and use thereof” (SHANGHAI INSTITUTE OF MATERIA MEDICA, CHINESE ACADEMY OF …, priority 2018, dated 2025).

receptor tyrosine kinase c-Met, sequence (P08581 25-1390): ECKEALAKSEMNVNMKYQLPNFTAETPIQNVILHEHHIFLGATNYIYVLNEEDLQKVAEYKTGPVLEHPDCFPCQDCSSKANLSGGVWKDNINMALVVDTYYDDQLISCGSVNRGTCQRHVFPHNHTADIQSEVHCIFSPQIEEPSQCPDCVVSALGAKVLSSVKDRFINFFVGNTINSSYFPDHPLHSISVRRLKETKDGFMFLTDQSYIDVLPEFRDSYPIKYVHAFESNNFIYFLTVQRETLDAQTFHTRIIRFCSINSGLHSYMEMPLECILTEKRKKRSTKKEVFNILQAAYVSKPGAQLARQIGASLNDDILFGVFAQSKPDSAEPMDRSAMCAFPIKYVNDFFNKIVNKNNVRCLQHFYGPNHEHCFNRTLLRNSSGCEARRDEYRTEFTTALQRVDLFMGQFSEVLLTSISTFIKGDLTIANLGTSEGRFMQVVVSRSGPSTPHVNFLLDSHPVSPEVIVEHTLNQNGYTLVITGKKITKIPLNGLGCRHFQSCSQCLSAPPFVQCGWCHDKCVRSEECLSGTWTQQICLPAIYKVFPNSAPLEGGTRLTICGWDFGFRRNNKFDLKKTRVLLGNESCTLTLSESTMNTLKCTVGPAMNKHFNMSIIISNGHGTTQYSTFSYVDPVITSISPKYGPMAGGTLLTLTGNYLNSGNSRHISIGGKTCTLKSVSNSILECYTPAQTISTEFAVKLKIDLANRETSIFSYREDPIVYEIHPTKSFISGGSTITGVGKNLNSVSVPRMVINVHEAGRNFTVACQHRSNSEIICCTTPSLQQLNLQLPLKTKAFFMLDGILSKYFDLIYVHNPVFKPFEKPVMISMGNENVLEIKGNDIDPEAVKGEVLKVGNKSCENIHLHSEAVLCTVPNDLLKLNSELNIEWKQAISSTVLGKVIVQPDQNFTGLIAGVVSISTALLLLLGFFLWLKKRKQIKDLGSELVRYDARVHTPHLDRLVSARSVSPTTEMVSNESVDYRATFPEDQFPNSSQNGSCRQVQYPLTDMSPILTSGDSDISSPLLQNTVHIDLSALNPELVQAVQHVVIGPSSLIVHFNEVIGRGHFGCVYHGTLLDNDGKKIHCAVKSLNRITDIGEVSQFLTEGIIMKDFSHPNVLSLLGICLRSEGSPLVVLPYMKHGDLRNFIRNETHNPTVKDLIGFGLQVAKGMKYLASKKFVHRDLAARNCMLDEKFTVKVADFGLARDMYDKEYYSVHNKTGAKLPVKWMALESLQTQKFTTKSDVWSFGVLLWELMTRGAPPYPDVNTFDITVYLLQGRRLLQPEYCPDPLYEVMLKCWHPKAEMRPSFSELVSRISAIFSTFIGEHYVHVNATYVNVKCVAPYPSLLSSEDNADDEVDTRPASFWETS

Turning to `COc1cc2nccc(Oc3ccc(NC(=O)c4c5n(n(-c6ccccc6)c4=O)CCCC5)cc3F)c2cc1OC` [DC621001, N-(4-((6,7-dimethoxyquinoline-4-yl)oxy)-3-fluorophenyl)-2-oxo-1-phenyl-1,2,4,5,6,7-hexahydropyrazolo[1,5-a]pyridine-3-formamide], the “c-Met Inhibitory rate (%)” value in assay [1] (1 nM, 0.001 µM) is 51.7% and 72.4%; in assay [1] (10 nM, 0.01 µM), 97.6%; in assay [1] (100 nM, 0.1 µM) it was 100%. The inhibition at 0.01 µM in assay [1] (10 nM) is 84.7%; in assay [2] (10 nM), 54.9%. Besides, the inhibition at 0.1 µM in assay [1] (100 nM) was 92%; in assay [2] (100 nM), 82%. In addition, the “BaF3/TEL-AXL proliferation Inhibitory rate (%)” value in assay [2] (10 nM, 0.01 µM) was found to be 59.1%; in assay [2] (100 nM, 0.1 µM), 71.3%.

Take `COc1cc2ncnc(Oc3ccc(NC(=O)c4c5n(n(-c6ccccc6)c4=O)CCCC5)cc3F)c2cc1OC` [DC621011, N-(4-((6,7-dimethoxyquinazoline-4-yl)oxy)-3-fluorophenyl)-2-oxo-1-phenyl-1,2,4,5,6,7-hexahydropyrazolo[1,5-a]pyridine-3-formamide]: the “c-Met Inhibitory rate (%)” value in assay [1] (10 nM, 0.01 µM) was found to be 89.2%; in assay [1] (100 nM, 0.1 µM), 100%. For the same molecule, the inhibition at 0.01 µM in assay [1] (10 nM) was 74.4%; in assay [2] (10 nM), 60.5%. The inhibition at 0.1 µM in assay [1] (100 nM) was 86.6%; in assay [2] (100 nM), 84.8%. In addition, the “BaF3/TEL-AXL proliferation Inhibitory rate (%)” value in assay [2] (10 nM, 0.01 µM) was 56.1%; in assay [2] (100 nM, 0.1 µM), 83.9%.

With `COc1cc2ncnc(Oc3ccc(NC(=O)c4c5n(n(-c6cc(F)ccc6F)c4=O)CCCC5)cc3)c2cc1OC` [DC621022, 1-(2,5-difluorophenyl)-N-(4-((6,7-dimethoxyquinazoline-4-yl)oxy)phenyl)-2-oxo-1,2,4,5,6,7-hexahydropyrazolo[1,5-a]pyridine-3-formamide], the “c-Met Inhibitory rate (%)” value amounted to 51.1% in assay [1] (1 nM, 0.001 µM); 57.0% in assay [1] (10 nM, 0.01 µM); 96.5% in assay [1] (100 nM, 0.1 µM). Besides, the inhibition at 0.001 µM is 35.4% in assay [1] (1 nM) and 66.3% in assay [2] (1 nM). The inhibition at 0.01 µM in assay [1] (10 nM) came out at 41.7%; in assay [2] (10 nM), 71.8%. Moreover, the values for the inhibition at 0.1 µM in assay [1] (100 nM) and in assay [2] (100 nM) were 81.9% and 83.2%, respectively. Moreover, the “BaF3/TEL-AXL proliferation Inhibitory rate (%)” value is 48.3% in assay [2] (1 nM, 0.001 µM); 58.0% in assay [2] (10 nM, 0.01 µM); 80.9% in assay [2] (100 nM, 0.1 µM).

On to `COc1cc2ncnc(Oc3ccc(NC(=O)c4c5n(n(-c6cc(F)ccc6F)c4=O)CCCC5)cc3F)c2cc1OC` [DC621023, 1-(2,5-difluorophenyl)-N-(4-((6,7-dimethoxyquinazoline-4-yl)oxy)-3-fluorophenyl)-2-oxo-1,2,4,5,6,7-hexahydropyrazolo[1,5-a]pyridine-3-formamide], for which the “c-Met Inhibitory rate (%)” value in assay [1] (1 nM, 0.001 µM) came to 60.9%; in assay [1] (10 nM, 0.01 µM), 92.3%; in assay [1] (100 nM, 0.1 µM), 100%. Also, the inhibition at 0.001 µM in assay [1] (1 nM) came to 58.9%. The figures for the inhibition at 0.01 µM in assay [1] (10 nM) and in assay [2] (10 nM) were 80.9% and 66.5%, respectively. In addition, the inhibition at 0.1 µM was determined as 99.2% in assay [1] (100 nM) and 76.8% in assay [2] (100 nM). In addition, the “BaF3/TEL-AXL proliferation Inhibitory rate (%)” value in assay [2] (1 nM, 0.001 µM) is 62.2% and 41.4%; in assay [2] (10 nM, 0.01 µM), 67.6%; in assay [2] (100 nM, 0.1 µM), 65.0%.

With `COc1cc2ncnc(Oc3ccc(NC(=O)c4c5n(n(-c6ccccc6F)c4=O)CCCC5)cc3F)c2cc1OC` [DC621034, N-(4-((6,7-dimethoxyquinazoline-4-yl)oxy)-3-fluorophenyl)-1-(2-fluorophenyl)-2-oxo-1,2,4,5,6,7-hexahydropyrazolo[1,5-a]pyridine-3-formamide], the “c-Met Inhibitory rate (%)” value in assay [1] (1 nM, 0.001 µM) is 34.8% and 63.9%; in assay [1] (10 nM, 0.01 µM), 66.5%; in assay [1] (100 nM, 0.1 µM) it was 97.0%. For the same molecule, the inhibition at 0.01 µM in assay [1] (10 nM) came out at 48.3%. Besides, the inhibition at 0.1 µM in assay [1] (100 nM) came out at 97.5%.

As for `O=C(Nc1ccc(Oc2ncnc3[nH]cc(-c4ccccc4)c23)c(F)c1)c1c2n(n(-c3ccccc3)c1=O)CCCC2` [DC621052, N-(3-fluoro-4-((5-phenyl-7H-pyrrolo[2,3-d]pyrimidin-4-yl)oxy)phenyl)-2-oxo-1-phenyl-1,2,4,5,6,7-hexahydropyrazolo[1,5-a]pyridine-3-formamide], the “c-Met Inhibitory rate (%)” value was 43.0% in assay [1] (1 nM, 0.001 µM); 55.1% and 85.0% in assay [1] (10 nM, 0.01 µM); 94.1% in assay [1] (100 nM, 0.1 µM). For the same molecule, the inhibition at 0.001 µM in assay [1] (1 nM) is 32.7%. The inhibition at 0.1 µM in assay [1] (100 nM) amounted to 84.5%.

On to `COc1cc2ncnc(Oc3ccc(NC(=O)c4c5n(n(-c6cc(F)ccc6F)c4=O)CCCC5)c(F)c3)c2cc1OC` [DC621053, 1-(2,5-difluorophenyl)-N-(4-((6,7-dimethoxyquinazoline-4-yl)oxy)-2-fluorophenyl)-2-oxo-1,2,4,5,6,7-hexahydropyrazolo[1,5-a]pyridine-3-formamide], for which the “c-Met Inhibitory rate (%)” value in assay [1] (10 nM, 0.01 µM) came out at 68.5%; in assay [1] (100 nM, 0.1 µM) it was 98.7%. The results for the inhibition at 0.01 µM in assay [1] (10 nM) and in assay [2] (10 nM) were 50.9% and 67.5%, respectively. Besides, the results for the inhibition at 0.1 µM in assay [1] (100 nM) and in assay [2] (100 nM) were 92.8% and 83.8%, respectively. Moreover, the “BaF3/TEL-AXL proliferation Inhibitory rate (%)” value in assay [2] (1 nM, 0.001 µM) is reported as 56.7%; in assay [2] (10 nM, 0.01 µM) it was 71.6%; in assay [2] (100 nM, 0.1 µM) it was 84.2%. Moreover, the inhibition at 0.001 µM in assay [2] (1 nM) came to 65.3%.

On to `O=C(Nc1ccc(Oc2ncnc3[nH]cc(-c4ccccc4)c23)c(F)c1)c1c2n(n(-c3cc(F)ccc3F)c1=O)CCCC2` [DC621055, 1-(2,5-difluorophenyl)-N-(3-fluoro-4-((5-phenyl-7H-pyrrolo[2,3-d]pyrimidin-4-yl)oxy)phenyl)-2-oxo-1,2,4,5,6,7-hexahydropyrazolo[1,5-a]pyridine-3-formamide], for which the “c-Met Inhibitory rate (%)” value in assay [1] (1 nM, 0.001 µM) is 30.8% and 53.9%; in assay [1] (10 nM, 0.01 µM) it was 74.2%; in assay [1] (100 nM, 0.1 µM) it was 100%. Besides, the inhibition at 0.01 µM in assay [1] (10 nM) came out at 68.2%. In addition, the inhibition at 0.1 µM in assay [1] (100 nM) was 96%.

`COc1cc2ncnc(Oc3ccc(NC(=O)c4c5n(n(-c6ccccc6F)c4=O)CCCC5)c(F)c3)c2cc1OC` [DC621056, N-(4-((6,7-dimethoxyquinazoline-4-yl)oxy)-2-fluorophenyl)-1-(2-fluorophenyl)-2-oxo-1,2,4,5,6,7-hexahydropyrazolo[1,5-a]pyridine-3-formamide]: the “c-Met Inhibitory rate (%)” value in assay [1] (10 nM, 0.01 µM) is 72.8% and 49.8%; in assay [1] (100 nM, 0.1 µM), 94.1%. Moreover, the inhibition at 0.1 µM in assay [1] (100 nM) stood at 92%; in assay [2] (100 nM), 86.6%. In addition, the “BaF3/TEL-AXL proliferation Inhibitory rate (%)” value in assay [2] (1 nM, 0.001 µM) turned out to be 58.8%; in assay [2] (10 nM, 0.01 µM) it was 74.1%; in assay [2] (100 nM, 0.1 µM), 84.9%. Besides, the inhibition at 0.001 µM in assay [2] (1 nM) was determined as 45.3%. Moreover, the inhibition at 0.01 µM in assay [2] (10 nM) amounted to 70%.

With `O=C(Nc1ccc(Oc2ncnc3[nH]cc(-c4ccccc4)c23)c(F)c1)c1c2n(n(-c3ccccc3F)c1=O)CCCC2` [DC621058, N-(3-fluoro-4-((5-phenyl-7H-pyrrolo[2,3-d]pyrimidin-4-yl)oxy)phenyl)-1-(2-fluorophenyl)-2-oxo-1,2,4,5,6,7-hexahydropyrazolo[1,5-a]pyridine-3-formamide], the “c-Met Inhibitory rate (%)” value in assay [1] (10 nM, 0.01 µM) is 45.1%; in assay [1] (100 nM, 0.1 µM) it was 83.6%. Also, the inhibition at 0.01 µM in assay [1] (10 nM) worked out at 54.6%. Further, in assay [1] (100 nM), the inhibition at 0.1 µM is 89.2%.

Turning to `COc1cc2ncnc(Oc3ccc(NC(=O)c4c5n(n(-c6ccc(F)cc6)c4=O)CCCC5)c(F)c3)c2cc1OC` [DC621059, N-(4-((6,7-dimethoxyquinazoline-4-yl)oxy)-2-fluorophenyl)-1-(4-fluorophenyl)-2-oxo-1,2,4,5,6,7-hexahydropyrazolo[1,5-a]pyridine-3-formamide], the “BaF3/TEL-AXL proliferation Inhibitory rate (%)” value in assay [2] (1 nM, 0.001 µM) amounted to 78.3%; in assay [2] (10 nM, 0.01 µM), 82.7%; in assay [2] (100 nM, 0.1 µM), 84.2%. Moreover, in assay [2] (1 nM), the inhibition at 0.001 µM was determined as 68.4%. The inhibition at 0.01 µM in assay [2] (10 nM) was 71.4%. Also, the inhibition at 0.1 µM in assay [2] (100 nM) was determined as 83.7%.

Take `COc1cc2ncnc(Oc3ccc(NC(=O)c4c5n(n(-c6ccc(F)cc6)c4=O)CCCC5)cc3C(F)(F)F)c2cc1OC` [DC621101, N-(4-((6,7-dimethoxyquinazoline-4-yl)oxy)-3-trifluoromethylphenyl)-1-(4-fluorophenyl)-2-oxo-1,2,4,5,6,7-hexahydropyrazolo[1,5-a]pyridine-3-formamide]: the “c-Met Inhibitory rate (%)” value in assay [1] (1 nM, 0.001 µM) is 19.6%; in assay [1] (10 nM, 0.01 µM), 60.9%; in assay [1] (100 nM, 0.1 µM), 91.0%. Besides, the inhibition at 0.001 µM in assay [1] (1 nM) is 27.2%. In addition, in assay [1] (10 nM), the inhibition at 0.01 µM is 75%. Besides, the inhibition at 0.1 µM in assay [1] (100 nM) was determined as 96.5%.

Regarding `COCCOc1cc2ncnc(Oc3ccc(NC(=O)c4c5n(n(-c6ccc(F)cc6)c4=O)CCCC5)cc3C(F)(F)F)c2cc1OCCOC` [DC621102, N-(4-((6,7-bis(2-methoxyethoxy)quinazolin-4-yl)oxy)-3-trifluoromethylphenyl)-1-(4-fluorophenyl)-2-oxo-1,2,4,5,6,7-hexahydropyrazolo[1,5-a]pyridine-3-formamide], the “c-Met Inhibitory rate (%)” value in assay [1] (1 nM, 0.001 µM) is 17.2%; in assay [1] (10 nM, 0.01 µM) it was 77.2% and 53.4%; in assay [1] (100 nM, 0.1 µM), 93.9%. In addition, the inhibition at 0.001 µM in assay [1] (1 nM) is 25.6%. Besides, in assay [1] (100 nM), the inhibition at 0.1 µM worked out at 99.1%.
